Laboratory results reported in US20250049680A1, “COMPOSITIONS AND METHODS FOR TREATING DENTIN CARIES” (Rutgers, The State University of New Jersey, priority 2023, published 2025).
“Also recorded” adds a separate entry of the source. Marks after values point to notes of the source that are not given here.

Key:
[1] = SEM-EDS color dot map, intensity of the metal in dentin; design: species or system human; conditions: for Unit of Intensity: EDS dot map at 1000x, 0 to 255 scale, mean ± SD; for color intensity: pilot study, mean and standard deviation
Protocol: (§1) The column was further developed with 150 mL of one of five metal chloride solutions (0.1 mol/L AA2P salts of Mg, Zn, Mn, Sr, and Ba) to obtain a fraction containing new cationic L-ascorbic acid 2 phosphates with Mg, Zn, Mn, Sr, or Ba (FIG. 2). The prepared dentin specimens were randomly divided into six groups according to the solution used. The canal of each section was covered with an adhesive wax at the lower surface of the dentin specimen. Dentin specimens were then irrigated with one of five intervening solutions (AA2P salts of Mg (0.18 mM), Zn (5.3 μM), Mn (2.2×10^-8 M), Sr (1.8 μM), and Ba (1.9 μM)) for five minutes, with the saline solution used as the control group. The root canals were then flushed with 10 mL of distilled water immediately after each treatment to remove excess solution.
Three specimens from each group were examined by SEM-EDS mode to observe the precipitation of metallic components on the dentin surface. All specimens were sectioned at a depth of 500 μm (exposure surface to fortifying solutions) using a diamond-coated disk under water cooling. The specimens' surfaces were then polished and sputter-coated with 10 nm gold and observed under an SEM. An EDS color dot map analysis was performed for each specimen at 1000× to evaluate the distribution of trace elements. The intensity of Mg, Zn, Mn, Sr, and Ba was measured using ImageJ software. The color maps were converted to binary, and their mean color intensity (0 to 255 scale) was recorded as a unit of intensity (UI).

[2] = Solubility evaluation: weight loss of fortified dentin in butyric acid; design: species or system human; conditions: for Solubility (weight loss): 0.1 M butyric acid pH 4.4, 24 h, 37 C, mean ± SD; for weight loss: pilot study, mean and standard deviation
Protocol: as §1, with “solution. […]” for “solution.”
Fortified dentin specimens were completely immersed in 30 ml of 0.1 M butyric acid buffered with synthetic tissue fluid (pH 4.4) for 24 hours at 37 degrees C. and 100% relative humidity. After incubation, the specimens were removed from the acidic solutions, rinsed with distilled water to remove any residual acid, and dried. The weight of the dentin slices was measured by a digital microbalance before and after immersion into butyric acid, and the difference in weight provided information on dentin solubility.

[3] = Compressive strength of fortified dentin specimens after pH cycling; design: species or system human; conditions: for Compressive strength: 5 min irrigation, 3-day pH cycling, mean ± SD
Protocol: as §1
(§2) Fortified dentin specimens were subjected to a pH cycling procedure with repeated sequences of de/remineralization. Artificial caries were formed in the dentin specimens by a 1-hour immersion in 2.5 mL of demineralizing solution (1.5 mM CaCl2), 0.9 mM KH2PO4, 50 mM acetate buffer, pH 4.8). All lesions were then immersed in 2.5 mL of remineralizing solution (1.5 mM CaCl2, 0.9 mM KH2PO4, 20 mM HEPES [4-(2-hydroxyethyl)-1-piperazineethanesulfonic acid], pH 7.0) for 23 hours. During each solution change, the specimens were rinsed with deionized water for 10 seconds. The pH cycling process was performed at 37 degrees Celsius for three days.
The procedure for compressive strength testing was the same as for DTS testing except for the orientation of the specimens in the universal testing machine. The loads were applied uniaxially, parallel to the long axes of the specimens, and perpendicular to the dentinal tubule orientation until the specimens fractured. To calculate the compressive strength (MPa), the failure load (N) was divided by the area of the specimen in contact with the load

[4] = Surface microhardness of fortified dentin specimens after pH cycling; design: species or system human; conditions: for microhardness, rank among all the groups: in words
Protocol: as §1, §2
A Micro Met 5100 durometer microhardness tester was used to measure the hardness of the fortified dentin specimens after exposure to a caries inducing environment. Each dentin specimen was further divided into two sections. Three separate indentations were made in each section at depths of 100 μm and 500 μm from the pulp-dentin interface using a 300-g load with a dwell time of 20 seconds for each measurement. The indentations were then evaluated under an optical microscope, and the average length of their two diagonal lengths was used to determine the hardness. The average microhardness value of the indentations' results was considered representative of each depth in each specimen.

[5] = Diametral tensile strength (DTS) of fortified dentin specimens after pH cycling; design: species or system human; conditions: for Diametral tensile strength: 5 min irrigation, 3-day pH cycling, mean ± SD; for DTS compared with the control group: in words; for DTS: pilot study, mean and standard deviation
Protocol: as §1, §2
The cylindrical specimens were positioned on a customized loading fixture to ensure that the 1.00 mm diameter loading pin aligned with the center axis of the dentin cylinder. Additionally, flat platens were used at both ends of the specimens to further ensure alignment with the testing surface. The specimens were then loaded horizontally into a universal testing machine, receiving a uniaxial load perpendicular to their long axes and parallel to the dentinal tubule orientation. A 1.00 mm diameter stainless steel plunger was used to apply downward pressure on the dentin surface at 1.0 mm/min crosshead speed. The maximal load applied to the plug at the time of dislodgement was recorded in Newtons, and the DTS was calculated using the formula
where F is the force in Newtons, D is the diameter of the cylinder, and h is the height in mm.

[6] = pH cycling model of artificial dentin caries; design: species or system human; conditions: in words
Protocol: as §2

[7] = Residual stress of treated dentin; conditions: 5 min treatment with AA2P salts
Protocol: After establishing that inorganic trace minerals (IoTM) were dysregulated in dentin, Applicant aimed to examine if extrinsic supplementation could enhance dentinal mechanical properties. Specimens were treated with L-ascorbic acid 2-phosphate (AA2P) salts of IoTM as a solute carrier for the elements for 5 minutes. The following findings were observed, as described below.
Cationic substitution may lead to changes in residual stress. Stress magnitude and distribution by can be measured using XRD (Mn X-ray source, 1 mm aperture) as well as by slitting crack compliance, a destructive mechanical strain release technique, using whole dentin disk samples. In the slitting method, a rectangular sample with a strain gauge applied to the back side will be wired to the electrical discharge machine to cut through a sample to measure strain relief. Finite element analysis can be used to create the stress profile through the depth of a sample. However, the technique's accuracy is limited at the surface. In contrast, XRD is best for surface measurements with very high accuracy. Data can be acquired using a sine-squared psi method to indicate residual stress, modulus, and Poisson ratio. […] Pit depths can be measured using a drop gauge. […] The residual stress in the surface and sub-surface of dentin apatite (as deep as […]) can be determined.

[8] = 100 and 500 μm depths combined, N=20

| SMILES | Unit of Intensity ([1]; 500 μm depth) | color intensity [1] | Solubility (weight loss) [2] | weight loss [2] [%] | Compressive strength [3] | Microhardness, Mean ([4]; 100 μM depth, N=10) [kgf/mm^2] | Microhardness, Mean ([4]; 500 μM depth, N=10) [kgf/mm^2] | Microhardness, Mean [4, 8] [kgf/mm^2] | Diametral tensile strength [5] | DTS compared with the control group [5] | DTS [5] [Mpa] | protection against artificial caries lesions [6] | kind of residual stress generated [7] | intensity / penetration, rank among all the groups ([1]; in words, 500 μm depth) | compressive strength, rank among all the groups ([3]; in words) | microhardness, rank among all the groups ([4]; 100 μm depth) | microhardness, rank among all the groups ([4]; depths combined) |
| --- | --- | --- | --- | --- | --- | --- | --- | --- | --- | --- | --- | --- | --- | --- | --- | --- | --- |
| O=C1O[C@H]([C@@H](O)CO)C([O-])=C1OP(=O)([O-])[O-].O=C1O[C@H]([C@@H](O)CO)C([O-])=C1OP(=O)([O-])[O-].[Mn+2].[Mn+2].[Mn+2] [Mn] | 6.57 ± 0.95 ^b Ui | 6.1±0.71 | 16.69 ± 3.97 ^a % | 16.48±4.55 | 148.03 ± 9.82 ^b Mpa | 40.60 | 58.80 | 49.70 | 56.07 ± 9.39 ^b Mpa | significantly higher DTS than the control group | 55.80±11.56 | – | – | – | – | – | – |
| O=C1O[C@H]([C@@H](O)CO)C([O-])=C1OP(=O)([O-])[O-].O=C1O[C@H]([C@@H](O)CO)C([O-])=C1OP(=O)([O-])[O-].[Zn+2].[Zn+2].[Zn+2] [Zn] | 7.1 ± 1.04 ^b Ui | 7.35±1.34 | 12.88 ± 3.39 ^a % | 12.55±3.82 | 152.40 ± 15.07 ^b Mpa | 40.30 | 56.30 | 48.30 | 54.97 ± 10.12 ^b Mpa | significantly higher DTS than the control group | 53.98±9.94 | protected the dentin lesions | tensile residual stress | – | – | – | – |
| O=C1O[C@H]([C@@H](O)CO)C([O-])=C1OP(=O)([O-])[O-].O=C1O[C@H]([C@@H](O)CO)C([O-])=C1OP(=O)([O-])[O-].[Mg+2].[Mg+2].[Mg+2] [Mg] | 9.76 ± 1.52 ^a Ui | 9.9±2.12 | 12.73 ± 4.92 ^a % | 12.61±5.67 | 148.97 ± 6.89 ^b Mpa | 38.10 | 57.20 | 47.65 | 56.93 ± 11.93 ^b Mpa | significantly higher DTS than the control group | 57.60±15.21 | – | – | highest intensity; also recorded: highest penetration | – | – | – |
| O=C1O[C@H]([C@@H](O)CO)C([O-])=C1OP(=O)([O-])[O-].O=C1O[C@H]([C@@H](O)CO)C([O-])=C1OP(=O)([O-])[O-].[Sr+2].[Sr+2].[Sr+2] [Sr] | 6.03 ± 0.67 ^b Ui | 6.2±0.85 | 18.53 ± 3.74 ^a % | 18.16±4.21 | 174.01 ± 11.09 ^c Mpa | 47.60 | 59.10 | 53.35 | 60.01 ± 2.70 ^b Mpa | significantly higher DTS than the control group | 59.99±1.91 | – | compressive residual stress | – | highest | highest | highest |
| O=C1O[C@H]([C@@H](O)CO)C([O-])=C1OP(=O)([O-])[O-].O=C1O[C@H]([C@@H](O)CO)C([O-])=C1OP(=O)([O-])[O-].[Ba+2].[Ba+2].[Ba+2] [Ba] | 5.57 ± 0.95 ^b Ui | 5.55±1.34 | 19.03 ± 2.99 ^a % | 18.96±3.44 | 157.96 ± 18.22 ^bc Mpa | 45.00 | 60.00 | 52.50 | 61.56 ± 3.55 ^b Mpa | significantly higher DTS than the control group | 61.96±4.47 | protected the dentin lesions | – | – | – | – | – |
